Assay results taken from patent publication US9095505B2, “Pyrethroids for treatment of ocular movement disorders” (RBG Group, LTD., priority 2013, dated 2015).
“Also recorded” adds a separate entry of the source.

Tested on: canine subjects
Assay: Eye movement recording of nystagmus in canine subjects (amplitude, NAFX)
Assay type: in vivo
Procedure: Eye movements were recorded using an EyeLink 1000 remote video recording system, with a sampling rate of 500-1000 Hz.
Efficacy was assessed by video-based eye tracking system wherein eye movement recordings of nystagmus and determination of Nystagmus Acuity Function (NAF, NAFX or eNAFX) was calculated from position and velocity data obtained from calibrated eye movement recordings. Techniques used to collect such data include a scleral search coil, non-contact infrared oculography, video pupillography and electroculography.
Nystagmus Acuity Function—NAF is a derived function that predicts the best-corrected visual acuity possible in subjects with nystagmus. NAF is based upon objective measurements of a subject's waveform characteristics during fixation of a small light-emitting diode and combines the foveation time per cycle and the standard deviations of both eye position and velocity during target foveation into a function that is linearly proportional to best-possible visual acuity.
Evaluation of the nystagmus acuity function (NAF, NAFX, eNAFX) is often used to evaluate the quality of the nystagmus cycle and/or quantify the effect of surgical or pharmaceutical intervention on the nystagmus waveform. […]
Amplitude—The amplitude of nystagmus was measured directly from calibrated eye movement recordings in degrees. […]

CC1(C)C(/C=C(\Cl)C(F)(F)F)C1C(=O)OC(C#N)c1cccc(Oc2ccccc2)c1 [LC, (R)-cyano(3-phenoxyphenyl)methyl(1S,3S)-rel-3-[(1Z)-2-chloro-3,3,3-trifluoro-1-propenyl]-2,2-dimethylcyclopropanecarboxylate] was tested, and the “high frequency (9-11) Hz pendular oscillation in eye position recording” value (after two doses of 0.6% topical eye drop, compared to Pre Drop recording of FIG. 1) was “less amplitude as compared to the Pre Drop eye movement recording; also recorded: only present only in extreme gaze” and the effect on nystagmus (after two doses of 0.6% w/w formulation) was “significant improvement of nystagmus”.
